# ChEMBL document CHEMBL2074469, “Analysis of methotrexate and folate transport by multidrug resistance protein 4 (ABCC4): MRP4 is a component of the methotrexate efflux system” (Cancer Res, 2002)
# T1: MRP4 (ATP-binding cassette sub-family C member 4) (Homo sapiens, UniProt O15439)
# T1 sequence (O15439 whole entry): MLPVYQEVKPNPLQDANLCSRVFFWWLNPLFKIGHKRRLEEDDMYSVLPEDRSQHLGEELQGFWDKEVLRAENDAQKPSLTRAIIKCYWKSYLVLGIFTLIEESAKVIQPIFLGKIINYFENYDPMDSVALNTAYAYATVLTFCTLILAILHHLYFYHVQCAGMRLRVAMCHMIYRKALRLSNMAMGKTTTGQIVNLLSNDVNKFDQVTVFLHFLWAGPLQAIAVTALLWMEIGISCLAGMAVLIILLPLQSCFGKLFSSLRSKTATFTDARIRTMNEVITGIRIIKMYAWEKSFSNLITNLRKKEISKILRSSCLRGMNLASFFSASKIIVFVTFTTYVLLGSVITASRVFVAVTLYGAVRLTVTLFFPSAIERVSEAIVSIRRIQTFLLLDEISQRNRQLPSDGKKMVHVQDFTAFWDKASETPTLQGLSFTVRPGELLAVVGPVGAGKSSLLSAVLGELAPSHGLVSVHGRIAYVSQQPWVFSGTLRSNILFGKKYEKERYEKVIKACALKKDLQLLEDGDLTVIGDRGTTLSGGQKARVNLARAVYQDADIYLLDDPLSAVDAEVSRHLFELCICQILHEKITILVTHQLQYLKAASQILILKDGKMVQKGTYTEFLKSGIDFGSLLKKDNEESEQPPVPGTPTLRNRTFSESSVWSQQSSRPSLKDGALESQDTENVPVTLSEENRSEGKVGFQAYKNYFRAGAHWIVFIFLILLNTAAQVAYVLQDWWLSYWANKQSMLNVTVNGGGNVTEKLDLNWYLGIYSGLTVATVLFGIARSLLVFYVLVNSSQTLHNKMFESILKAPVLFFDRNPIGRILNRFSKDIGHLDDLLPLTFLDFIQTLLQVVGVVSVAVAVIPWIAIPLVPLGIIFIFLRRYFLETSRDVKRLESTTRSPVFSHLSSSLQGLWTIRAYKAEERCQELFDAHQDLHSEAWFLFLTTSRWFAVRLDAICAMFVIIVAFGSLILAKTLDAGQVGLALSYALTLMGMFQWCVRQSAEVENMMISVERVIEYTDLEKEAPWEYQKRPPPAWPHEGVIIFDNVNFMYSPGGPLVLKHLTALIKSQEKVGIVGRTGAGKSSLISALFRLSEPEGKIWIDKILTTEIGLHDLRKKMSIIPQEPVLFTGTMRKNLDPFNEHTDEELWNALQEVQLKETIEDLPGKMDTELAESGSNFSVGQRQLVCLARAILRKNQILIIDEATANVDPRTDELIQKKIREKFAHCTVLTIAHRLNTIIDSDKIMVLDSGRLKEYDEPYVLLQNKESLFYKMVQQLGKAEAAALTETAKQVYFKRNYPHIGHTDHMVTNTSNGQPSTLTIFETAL
# B1: ATP-binding cassette sub-family C member 4 (Homo sapiens) (protein)
# chain: T1 sequence (O15439 whole entry)
# Tests used:
# Type in all cases: functional, cell membranes, Membrane vesicle
# [1] = molecular target: T1, MRP4 (ATP-binding cassette sub-family C member 4); experiment: TP_TRANSPORTER: inhibition of MTX uptake (MTX: 20 uM, Sulfinpyrazone: 300 uM) in membrane vesicles from MRP4-expressing Sf9 cells; design: scale not given: the % may be the effect or the level left; settings: probe MTX (20 uM), read-out: Activity
# [2] = molecular target: T1, MRP4 (ATP-binding cassette sub-family C member 4); experiment: TP_TRANSPORTER: inhibition of MTX uptake (MTX: 20 uM, E217betaG: 30 uM) in membrane vesicles from MRP4-expressing Sf9 cells; design: scale not given: the % may be the effect or the level left; settings: probe MTX (20 uM), read-out: Activity
# [3] = molecular target: T1, MRP4 (ATP-binding cassette sub-family C member 4); experiment: TP_TRANSPORTER: inhibition of MTX uptake (MTX: 20 uM, Folic acid: 300 uM) in membrane vesicles from MRP4-expressing Sf9 cells; design: scale not given: the % may be the effect or the level left; settings: probe MTX (20 uM), read-out: Activity
# [4] = molecular target: T1, MRP4 (ATP-binding cassette sub-family C member 4); experiment: TP_TRANSPORTER: inhibition of MTX uptake (MTX: 20 uM, PSC-833: 10 uM) in membrane vesicles from MRP4-expressing Sf9 cells; design: scale not given: the % may be the effect or the level left; settings: probe MTX (20 uM), read-out: Activity
# [5] = molecular target: T1, MRP4 (ATP-binding cassette sub-family C member 4); experiment: TP_TRANSPORTER: inhibition of MTX uptake (MTX: 20 uM, Trequinsin: 10 uM) in membrane vesicles from MRP4-expressing Sf9 cells; design: scale not given: the % may be the effect or the level left; settings: probe MTX (20 uM), read-out: Activity
# [6] = molecular target: T1, MRP4 (ATP-binding cassette sub-family C member 4); experiment: TP_TRANSPORTER: inhibition of MTX uptake (MTX: 20 uM, cGMP: 300 uM) in membrane vesicles from MRP4-expressing Sf9 cells; design: scale not given: the % may be the effect or the level left; settings: probe MTX (20 uM), read-out: Activity
# [7] = molecular target: T1, MRP4 (ATP-binding cassette sub-family C member 4); experiment: TP_TRANSPORTER: inhibition of MTX uptake (MTX: 20 uM, Leucovorin: 300 uM) in membrane vesicles from MRP4-expressing Sf9 cells; design: scale not given: the % may be the effect or the level left; settings: probe MTX (20 uM), read-out: Activity
# [8] = molecular target: T1, MRP4 (ATP-binding cassette sub-family C member 4); experiment: TP_TRANSPORTER: inhibition of MTX uptake (MTX: 20 uM, MK571: 1 uM) in membrane vesicles from MRP4-expressing Sf9 cells; design: scale not given: the % may be the effect or the level left; settings: probe MTX (20 uM), read-out: Activity
# [9] = molecular target: T1, MRP4 (ATP-binding cassette sub-family C member 4); experiment: TP_TRANSPORTER: inhibition of MTX uptake (MTX: 20 uM, Zaprinast: 10 uM) in membrane vesicles from MRP4-expressing Sf9 cells; design: scale not given: the % may be the effect or the level left; settings: probe MTX (20 uM), read-out: Activity
# [10] = molecular target: T1, MRP4 (ATP-binding cassette sub-family C member 4); experiment: TP_TRANSPORTER: inhibition of MTX uptake (MTX: 20 uM, Verapamil: 30 uM) in membrane vesicles from MRP4-expressing Sf9 cells; design: scale not given: the % may be the effect or the level left; settings: probe MTX (20 uM), read-out: Activity
# [11] = molecular target: T1, MRP4 (ATP-binding cassette sub-family C member 4); experiment: TP_TRANSPORTER: inhibition of MTX uptake (MTX: 20 uM, Probenecid: 300 uM) in membrane vesicles from MRP4-expressing Sf9 cells; design: scale not given: the % may be the effect or the level left; settings: probe MTX (20 uM), read-out: Activity
# [12] = molecular target: T1, MRP4 (ATP-binding cassette sub-family C member 4); experiment: TP_TRANSPORTER: inhibition of MTX uptake (MTX: 20 uM, Sildenafil: 10 uM) in membrane vesicles from MRP4-expressing Sf9 cells; design: scale not given: the % may be the effect or the level left; settings: probe MTX (20 uM), read-out: Activity
# [13] = substrate: Nc1nc2ncc(CNc3ccc(C(=O)N[C@@H](CCC(=O)O)C(=O)O)cc3)nc2c(=O)[nH]1; experiment: (§1) TP_TRANSPORTER: uptake in membrane vesicles from MRP4-expressing Sf9 cells
# [14] = substrate: Nc1nc2c(c(=O)[nH]1)N(C=O)C(CNc1ccc(C(=O)N[C@@H](CCC(=O)O)C(=O)O)cc1)CN2; experiment: as §1
molecule,measurement,setting,value
O=C1C(CC[S+]([O-])c2ccccc2)C(=O)N(c2ccccc2)N1c1ccccc1 (centres undefined) [SULFINPYRAZONE],activity at 300 µM,[1],23.3%
C[C@]12CC[C@@H]3c4ccc(O)cc4CC[C@H]3[C@@H]1CC[C@@H]2O[C@@H]1O[C@H](C(=O)O)[C@@H](O)[C@H](O)[C@H]1O [ESTRADIOL 17B GLUCURONIDE],activity at 30 µM,[2],39.9%
Nc1nc2ncc(CNc3ccc(C(=O)N[C@@H](CCC(=O)O)C(=O)O)cc3)nc2c(=O)[nH]1 [FOLIC ACID],activity at 300 µM,[3],45%
C/C=C/C[C@@H](C)C(=O)[C@H]1C(=O)N[C@@H](C(C)C)C(=O)N(C)CC(=O)N(C)[C@@H](CC(C)C)C(=O)N[C@@H](C(C)C)C(=O)N(C)[C@@H](CC(C)C)C(=O)N[C@@H](C)C(=O)N[C@H](C)C(=O)N(C)[C@@H](CC(C)C)C(=O)N(C)[C@@H](CC(C)C)C(=O)N(C)[C@@H](C(C)C)C(=O)N1C [VALSPODAR],activity at 10 µM,[4],56.4%
COc1cc2c(cc1OC)-c1c/c(=N\c3c(C)cc(C)cc3C)n(C)c(=O)n1CC2 [TREQUINSIN],activity at 10 µM,[5],25.7%
Nc1nc2c(ncn2[C@@H]2O[C@@H]3COP(=O)(O)O[C@H]3[C@H]2O)c(=O)[nH]1,activity at 300 µM,[6],46.5%
Nc1nc2c(c(=O)[nH]1)N(C=O)C(CNc1ccc(C(=O)N[C@@H](CCC(=O)O)C(=O)O)cc1)CN2 (some centres undefined) [LEUCOVORIN],activity at 300 µM,[7],71.2%
CN(C)C(=O)CCSC(SCCC(=O)O)c1cccc(/C=C/c2ccc3ccc(Cl)cc3n2)c1 (centres undefined) [MK-571],activity at 1 µM,[8],56.4%
CCCOc1ccccc1-c1nc2nn[nH]c2c(=O)[nH]1 [ZAPRINAST],activity at 10 µM,[9],34.1%
COc1ccc(CCN(C)CCCC(C#N)(c2ccc(OC)c(OC)c2)C(C)C)cc1OC (centres undefined),activity at 30 µM,[10],53.8%
CCCN(CCC)S(=O)(=O)c1ccc(C(=O)O)cc1 [PROBENECID],activity at 300 µM,[11],49.4%
CCCc1nn(C)c2c(=O)[nH]c(-c3cc(S(=O)(=O)N4CCN(C)CC4)ccc3OCC)nc12,activity at 10 µM,[12],46%
B1,Km,[13],170 µM
same,Km,[14],640 µM
